# From ChEMBL document CHEMBL5154636, “Discovery of STAT3 and Histone Deacetylase (HDAC) Dual-Pathway Inhibitors for the Treatment of Solid Cancer” (J Med Chem, 2021)
# The source made the active and inactive calls. The rule behind the calls is not given here.
# Legend:
# [1] = biological target: T1, Signal transducer and activator of transcription 3 (Homo sapiens, UniProt P40763); test: Inhibition of STAT3 in human MDA-MB-231 cells assessed as decrease in Bcl-2 protein expression at 0.5 to 5 uM after 24 hrs by Western blot analysis; type: cell-based; conditions: dose 0.5-5 µM
# MDA-MB-231 [2] = test: Induction of apoptosis in human MDA-MB-231 cells assessed as early apoptotic cells at 2 uM incubated for 24 hrs by Annexin-V/FITC and PI staining based flow cytometry analysis (reference value: 1.4%); type: functional
# [3] = biological target: Histone deacetylase (Homo sapiens) (UniProt Q13547+O15379+Q9UBN7+Q92769+Q9UQL6+Q8WUI4+Q9BY41+Q96DB2+P56524+Q9UKV0+Q969S8); test: Inhibition of HDAC in human MDA-MB-231 cells assessed as increase in histone H3 acetylation incubated for 24 hrs by Western blot analysis; type: cell-based; conditions: dose 0.5-5 µM, DDE = dose-dependent effect
# MDA-MB-231 [4] = test: Induction of apoptosis in human MDA-MB-231 cells assessed as viable cells at 10 uM incubated for 24 hrs by Annexin-V/FITC and PI staining based flow cytometry analysis (reference value: 97.8%); type: functional; conditions: read-out: Activity
# MDA-MB-231 [5] = test: Induction of apoptosis in human MDA-MB-231 cells assessed as viable cells at 2 uM incubated for 24 hrs by Annexin-V/FITC and PI staining based flow cytometry analysis (reference value: 97.8%); type: functional; conditions: read-out: Activity
# [6] = Acute toxicity in po dosed ICR mouse assessed as maximum tolerated dose measured after 7 days; type: organism-based; conditions: in vivo, time 7 day
# 4T1 [7] = test: Antitumor activity against mouse 4T1 cells allografted in BALB/c mouse assessed as reduction in tumor weight at 30 mg/kg, ip qd for 21 days by vernier caliper method relative to control; type: functional; set-up: scale not given: the % may be the effect or the level left; conditions: time 21 day
# MDA-MB-231 [8] = test: Induction of apoptosis in human MDA-MB-231 cells assessed as chromatin condensation at 0.5 to 5 uM incubated for 24 hrs by Hoechst 33258 staining based fluorescence microscopy analysis; type: functional, cell-based; conditions: dose 0.5-5 µM
# MDA-MB-231 [9] = test: Induction of apoptosis in human MDA-MB-231 cells assessed as late apoptotic cells at 5 uM incubated for 24 hrs by Annexin-V/FITC and PI staining based flow cytometry analysis (reference value: 0.7%); type: functional
# [10] = biological target: T2, Protein deacetylase HDAC6 (Homo sapiens, UniProt Q9UBN7); test: Inhibition of recombinant human HDAC6 using RHKK(Ac)AMC fluorogenic peptide as substrate by fluorescence assay
# T2 sequence (Q9UBN7 whole entry): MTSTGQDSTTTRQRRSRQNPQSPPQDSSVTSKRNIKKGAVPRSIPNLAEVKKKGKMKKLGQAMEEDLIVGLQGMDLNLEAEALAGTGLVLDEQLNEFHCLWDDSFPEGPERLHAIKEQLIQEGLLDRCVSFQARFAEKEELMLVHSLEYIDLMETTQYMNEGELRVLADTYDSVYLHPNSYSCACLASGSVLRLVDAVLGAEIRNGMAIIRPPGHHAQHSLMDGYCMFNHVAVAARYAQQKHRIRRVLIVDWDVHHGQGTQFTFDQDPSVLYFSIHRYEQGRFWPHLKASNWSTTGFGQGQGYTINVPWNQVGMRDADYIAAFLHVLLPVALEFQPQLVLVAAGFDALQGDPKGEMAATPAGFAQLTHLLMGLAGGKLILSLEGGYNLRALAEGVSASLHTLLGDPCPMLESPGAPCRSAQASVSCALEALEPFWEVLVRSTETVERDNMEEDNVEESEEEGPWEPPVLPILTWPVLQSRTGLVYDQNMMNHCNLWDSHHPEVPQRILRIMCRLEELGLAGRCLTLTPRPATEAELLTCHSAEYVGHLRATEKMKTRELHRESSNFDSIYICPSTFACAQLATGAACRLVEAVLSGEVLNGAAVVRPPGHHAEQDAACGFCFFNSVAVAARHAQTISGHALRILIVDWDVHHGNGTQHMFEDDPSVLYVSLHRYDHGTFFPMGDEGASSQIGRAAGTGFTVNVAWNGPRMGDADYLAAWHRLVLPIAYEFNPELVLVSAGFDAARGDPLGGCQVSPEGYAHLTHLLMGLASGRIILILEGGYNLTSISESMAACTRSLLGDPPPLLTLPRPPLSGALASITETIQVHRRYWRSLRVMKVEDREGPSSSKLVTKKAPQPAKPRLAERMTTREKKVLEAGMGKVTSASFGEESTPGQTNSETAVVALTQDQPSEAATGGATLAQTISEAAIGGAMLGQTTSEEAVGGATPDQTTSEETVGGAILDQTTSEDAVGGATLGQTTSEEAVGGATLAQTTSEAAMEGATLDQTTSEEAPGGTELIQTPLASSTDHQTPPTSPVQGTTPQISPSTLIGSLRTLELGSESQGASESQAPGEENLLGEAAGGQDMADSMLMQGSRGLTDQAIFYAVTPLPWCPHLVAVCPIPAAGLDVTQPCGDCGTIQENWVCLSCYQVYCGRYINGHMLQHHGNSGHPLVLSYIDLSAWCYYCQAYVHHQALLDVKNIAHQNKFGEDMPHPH
# [11] = Half life in Sprague-Dawley rat at 2 mg/kg, iv measured upto 24 hrs by LC-MS/MS analysis; type: ADME, organism-based; conditions: in vivo
# [12] = biological target: T1, Signal transducer and activator of transcription 3; test: Binding affinity to recombinant GST tagged STAT3 (unknown origin) assessed as dissociation constant
# MDA-MB-231 [13] = test: Induction of apoptosis in human MDA-MB-231 cells assessed as late apoptotic cells at 10 uM incubated for 24 hrs by Annexin-V/FITC and PI staining based flow cytometry analysis (reference value: 0.7%); type: functional
# [14] = Oral bioavailability in Sprague-Dawley rat at 20 mg/kg measured upto 24 hrs by LC-MS/MS analysis; type: ADME, organism-based; conditions: in vivo
# MDA-MB-231 [15] = test: Inhibition of colony formation in human MDA-MB-231 cells at 0.5 to 0.5 uM incubated for 24 hrs followed by culturing in fresh compound-free medium for 15 days by crystal violet dye based assay; type: functional, cell-based; conditions: dose 0.5-0.5 µM
# [16] = biological target: T1, Signal transducer and activator of transcription 3; test: Inhibition of STAT3 phosphorylation at Y705 residue in human MDA-MB-231 cells incubated for 24 hrs by Western blot assay; type: cell-based; conditions: dose 0.5-5 µM
# [17] = biological target: T1, Signal transducer and activator of transcription 3; test: Inhibition of STAT3 in human MDA-MB-231 cells assessed as decrease in Bcl-2 mRNA expression at 0.5 to 5 uM by qRT-PCR analysis; type: cell-based; conditions: dose 0.5-5 µM
# MDA-MB-231 [18] = test: Cytotoxicity against human MDA-MB-231 cells assessed as reduction in cell viability incubated for 48 hrs by MTT assay; type: functional, cell-based; conditions: MDA-MB-231, 48 h
# L02 = test: Cytotoxicity against human L02 cells assessed as reduction in cell viability at 32 uM incubated for 48 hrs by MTT assay relative to control; type: toxicity, cell-based; conditions: l02, 48 h
# 4T1 [19] = test: Antitumor activity against mouse 4T1 cells allografted in BALB/c mouse assessed as reduction in tumor volume at 15 mg/kg, ip qd for 21 days and measured every 3 days by vernier caliper method relative to control; type: functional; set-up: scale not given: the % may be the effect or the level left; conditions: time 21 day
# MDA-MB-231 [20] = test: Induction of apoptosis in human MDA-MB-231 cells assessed as increase in cleaved capase-7 level at 0.5 to 5 uM incubated for 24 hrs by Western blot analysis; type: functional, cell-based; conditions: dose 0.5-5 µM
# T1 sequence (P40763 whole entry): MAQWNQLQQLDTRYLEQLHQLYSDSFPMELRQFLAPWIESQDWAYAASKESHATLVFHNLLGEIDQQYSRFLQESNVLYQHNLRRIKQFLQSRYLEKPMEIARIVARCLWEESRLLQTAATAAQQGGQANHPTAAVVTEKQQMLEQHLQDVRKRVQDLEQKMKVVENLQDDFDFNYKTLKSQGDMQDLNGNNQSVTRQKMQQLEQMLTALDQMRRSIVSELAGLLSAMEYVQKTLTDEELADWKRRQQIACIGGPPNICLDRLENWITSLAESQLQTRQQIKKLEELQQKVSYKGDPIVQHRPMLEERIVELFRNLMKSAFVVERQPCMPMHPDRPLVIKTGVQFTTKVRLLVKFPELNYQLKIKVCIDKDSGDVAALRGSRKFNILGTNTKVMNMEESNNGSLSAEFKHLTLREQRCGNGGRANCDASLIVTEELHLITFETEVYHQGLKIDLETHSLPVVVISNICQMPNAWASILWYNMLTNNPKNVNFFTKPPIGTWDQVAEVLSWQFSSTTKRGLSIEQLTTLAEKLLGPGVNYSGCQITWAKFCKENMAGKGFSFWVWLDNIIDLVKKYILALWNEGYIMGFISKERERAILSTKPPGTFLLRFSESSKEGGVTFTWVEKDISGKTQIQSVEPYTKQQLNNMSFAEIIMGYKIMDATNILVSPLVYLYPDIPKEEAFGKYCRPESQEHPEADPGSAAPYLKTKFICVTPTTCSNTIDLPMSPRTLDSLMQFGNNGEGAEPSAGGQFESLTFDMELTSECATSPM
structure (smiles),measurement,setting,value
COc1cc(/C=C/c2ccc(OCCCCCCC(=O)NO)cc2)cc(OC)c1,inhibition,[1],Active
same,Activity,MDA-MB-231 [2],4.9%
same,Activity,[3],Dde
same,viability at 10 µM,MDA-MB-231 [4],40.5%
same,viability at 2 µM,MDA-MB-231 [5],89.3%
same,MTD at 168 h,[6],> 400 mg/kg
same,Activity,4T1 [7],62%
same,Activity,MDA-MB-231 [8],Active
same,Activity,MDA-MB-231 [9],3.9%
same,IC50,[10],104 nM
same,half-life,[11],28.2 min
same,Kd,[12],0.01516 s⁻¹
same,Kd,[12]; read-out: Kd,33.6 nM
same,Activity,MDA-MB-231 [13],19.7%
same,bioavailability,[14],5.81%
same,inhibition,MDA-MB-231 [15],Active
same,inhibition,[16],Active
same,inhibition,[17],Active
same,IC50,MDA-MB-231 [18],780 nM
same,Activity,L02,32%
same,Activity,4T1 [19],54%
same,Activity,MDA-MB-231 [20],Active
